Earlier results, collected in patent US20250222007A1, “PREPARATION OF LOW MOLECULAR WEIGHT POLYLACTIC ACID AND THE USE THEREOF” (AL Andalous for Pharmaceutical Industries, priority 2023, published 2025).

What was measured:
rabbit eye = settings: 0.2 ml/day of 100% DMSO (4 drops/day) for 6 months
blind human eyes = settings: 66% DMSO (with Tetryzoline) topically 4-8 times a day
lower conjunctival sac = settings: 50 microliters instilled directly in the lower conjunctival sac
[1] = dissolved in 0.1% DMSO, 20.5, 5, 10, 30, 40 micrograms

C[S+](C)[O-] [DMSO, dimethyl sulfoxide]
adverse effect in the eye (rabbit eye): without any evidence of an adverse effect
cases with a burning sensation (blind human eyes): only one case
sensitivity to DMSO, epithelial damage, increase of IOP or keratitis (blind human eyes): None of any blind eyes evinced any evidence
eye irritation or conjunctival or corneal injury (lower conjunctival sac): without any signs of eye irritation or conjunctival or corneal injury

Clc1ccc(COC(Cn2ccnc2)c2ccc(Cl)cc2Cl)c(Cl)c1 (centres unmarked) [miconazole]
toxicity after intravitreal injection [1]: No toxicity was observed
